From patent US9580437B2, “Triazolopyrimidine compounds and uses thereof” (Novartis AG, priority 2014, dated 2017)
pIC50: −log10 of the molar value. Values belong to the compound of their own block, whether it stands above or below them.

Tests used:
[1] = molecular target: EED (1-441)-His protein (Homo sapiens (Human), UniProt O75530); experiment: EED-H3K27Me3 peptide competition binding assay by AlphaScreen; settings: read-out: (a) IC50 EED Alphascreen binding Qualified
Source text: EED-H3K27Me3 peptide competition binding assay by AlphaScreen (α-screen)

[2] = molecular target: wild type PRC2 (wtPRC2) complex (Homo sapiens (Human), UniProt O75530); experiment: EED LC-MS assay; format: biochemical; settings: read-out: (b) IC50 EED LC-MS Qualified
Procedure: A 6 μL solution of 3 μM of the peptide substrate H3K27Me0 (histone H3[21-44]-biotin) in reaction buffer was added to initiate each reaction. […] ELISA (H3K27 Methylation) Assay

wild type PRC2 (wtPRC2) complex, sequence (O75530 whole entry): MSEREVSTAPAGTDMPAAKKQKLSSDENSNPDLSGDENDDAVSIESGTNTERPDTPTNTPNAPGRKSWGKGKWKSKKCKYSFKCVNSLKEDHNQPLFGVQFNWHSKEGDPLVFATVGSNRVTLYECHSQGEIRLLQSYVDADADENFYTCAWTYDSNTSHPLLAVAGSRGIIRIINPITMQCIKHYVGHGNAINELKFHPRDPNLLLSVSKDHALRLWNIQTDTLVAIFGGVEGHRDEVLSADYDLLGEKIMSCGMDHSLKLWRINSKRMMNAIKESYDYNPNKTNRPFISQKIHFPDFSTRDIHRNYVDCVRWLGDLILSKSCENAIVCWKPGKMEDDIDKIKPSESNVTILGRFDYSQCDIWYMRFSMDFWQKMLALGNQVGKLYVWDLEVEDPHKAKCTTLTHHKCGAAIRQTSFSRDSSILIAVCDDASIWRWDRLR
wild type PRC2 (wtPRC2) complex, sequence (Q15910 whole entry partner): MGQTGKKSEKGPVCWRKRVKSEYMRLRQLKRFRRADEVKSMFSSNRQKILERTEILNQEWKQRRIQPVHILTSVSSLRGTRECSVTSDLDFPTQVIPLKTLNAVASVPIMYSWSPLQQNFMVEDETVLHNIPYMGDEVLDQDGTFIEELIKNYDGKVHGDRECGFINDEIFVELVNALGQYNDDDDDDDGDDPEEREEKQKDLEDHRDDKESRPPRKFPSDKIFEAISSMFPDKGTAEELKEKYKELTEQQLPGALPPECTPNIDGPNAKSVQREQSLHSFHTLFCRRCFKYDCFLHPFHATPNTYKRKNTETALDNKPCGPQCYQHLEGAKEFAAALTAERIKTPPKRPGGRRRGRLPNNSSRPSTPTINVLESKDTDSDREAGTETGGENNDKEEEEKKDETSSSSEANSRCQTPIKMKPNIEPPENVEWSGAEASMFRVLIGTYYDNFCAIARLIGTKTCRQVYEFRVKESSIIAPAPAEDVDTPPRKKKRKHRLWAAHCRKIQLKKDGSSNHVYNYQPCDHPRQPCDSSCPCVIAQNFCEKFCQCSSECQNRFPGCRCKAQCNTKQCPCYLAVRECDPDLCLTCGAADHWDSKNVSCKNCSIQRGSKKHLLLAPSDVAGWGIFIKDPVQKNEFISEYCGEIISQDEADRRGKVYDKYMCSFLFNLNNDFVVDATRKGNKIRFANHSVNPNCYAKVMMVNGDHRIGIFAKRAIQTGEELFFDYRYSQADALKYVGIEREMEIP
wild type PRC2 (wtPRC2) complex, sequence (Q15022 whole entry partner): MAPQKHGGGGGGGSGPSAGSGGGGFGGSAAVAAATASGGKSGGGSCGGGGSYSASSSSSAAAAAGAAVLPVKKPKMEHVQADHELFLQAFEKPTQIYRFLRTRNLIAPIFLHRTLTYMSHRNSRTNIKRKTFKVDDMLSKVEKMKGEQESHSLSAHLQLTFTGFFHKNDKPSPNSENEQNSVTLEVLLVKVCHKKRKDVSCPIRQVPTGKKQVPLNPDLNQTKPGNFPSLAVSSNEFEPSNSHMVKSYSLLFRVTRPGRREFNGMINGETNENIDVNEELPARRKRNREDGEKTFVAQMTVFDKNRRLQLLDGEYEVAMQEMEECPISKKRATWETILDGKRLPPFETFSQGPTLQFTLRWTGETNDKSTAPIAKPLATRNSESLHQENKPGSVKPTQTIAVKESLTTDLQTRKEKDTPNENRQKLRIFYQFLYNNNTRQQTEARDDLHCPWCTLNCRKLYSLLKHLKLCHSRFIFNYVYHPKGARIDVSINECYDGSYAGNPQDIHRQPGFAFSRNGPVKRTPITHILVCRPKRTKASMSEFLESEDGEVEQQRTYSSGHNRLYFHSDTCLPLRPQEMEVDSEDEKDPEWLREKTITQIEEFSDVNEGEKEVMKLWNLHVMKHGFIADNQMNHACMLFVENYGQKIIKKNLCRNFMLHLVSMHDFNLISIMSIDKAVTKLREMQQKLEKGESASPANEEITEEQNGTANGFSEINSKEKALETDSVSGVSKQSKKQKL
EED (1-441)-His protein, sequence (O75530 whole entry): as the sequence (O75530 whole entry) above

pIC50 [1]: 7.77
pIC50 [2]: 7.34
SMILES: COc1ccc(-c2cnc(NCc3c(F)ccc4c3CCO4)n3cnnc23)c(C)n1 [Example 155, N-((5-fluoro-2,3-dihydrobenzofuran-4-yl)methyl)-8-(6-methoxy-2-methylpyridin-3-yl)-[1,2,4]triazolo[4,3-c]pyrimidin-5-amine]

pIC50 [1]: 8.40
pIC50 [2]: 7.76
SMILES: Cc1nc(N)ccc1-c1cnc(NCc2c(F)ccc3c2CCO3)n2cnnc12 [Example 156, 8-(6-amino-2-methylpyridin-3-yl)-N-((5-fluoro-2,3-dihydrobenzofuran-4-yl)methyl)-[1,2,4]triazolo[4,3-c]pyrimidin-5-amine]

pIC50 [1]: 8.44
pIC50 [2]: 8.01
SMILES: COc1cc(F)c(-c2cnc(NCc3c(F)ccc4c3CCO4)n3cnnc23)cn1 [Example 161, N-((5-fluoro-2,3-dihydrobenzofuran-4-yl)methyl)-8-(4-fluoro-6-methoxypyridin-3-yl)-[1,2,4]triazolo[4,3-c]pyrimidin-5-amine]

pIC50 [1]: 8.24
pIC50 [2]: 7.68
SMILES: Fc1ccc2c(c1CNc1ncc(-c3ccncc3Cl)c3nncn13)CCO2 [Example 162, 8-(3-chloropyridin-4-yl)-N-((5-fluoro-2,3-dihydrobenzofuran-4-yl)methyl)-[1,2,4]triazolo[4,3-c]pyrimidin-5-amine]

pIC50 [1]: 8.39
pIC50 [2]: 7.96
SMILES: Cc1cnccc1-c1cnc(NCc2c(F)ccc3c2CCO3)n2cnnc12 [Example 163, N-((5-fluoro-2,3-dihydrobenzofuran-4-yl)methyl)-8-(3-methylpyridin-4-yl)-[1,2,4]triazolo[4,3-c]pyrimidin-5-amine]

pIC50 [1]: 8.38
pIC50 [2]: 7.86
SMILES: Cc1nc(F)ccc1-c1cnc(NCc2c(F)ccc3c2CCO3)n2cnnc12 [Example 164, N-((5-fluoro-2,3-dihydrobenzofuran-4-yl)methyl)-8-(6-fluoro-2-methylpyridin-3-yl)-[1,2,4]triazolo[4,3-c]pyrimidin-5-amine]

pIC50 [1]: 8.35
pIC50 [2]: 8.13
SMILES: Cc1cc(F)ccc1-c1cnc(NCc2c(F)ccc3c2CCO3)n2cnnc12 [Example 165, N-((5-fluoro-2,3-dihydrobenzofuran-4-yl)methyl)-8-(4-fluoro-2-methylphenyl)-[1,2,4]triazolo[4,3-c]pyrimidin-5-amine]

pIC50 [1]: 8.48
pIC50 [2]: 8.28
SMILES: Cc1ccc(-c2cnc(NCc3c(F)ccc4c3CCO4)n3cnnc23)c(C)n1 [Example 167, 8-(2,6-dimethylpyridin-3-yl)-N-((5-fluoro-2,3-dihydrobenzofuran-4-yl)methyl)-[1,2,4]triazolo[4,3-c]pyrimidin-5-amine]

pIC50 [1]: 8.18
pIC50 [2]: 8.15
SMILES: Cc1c(-c2cnc(NCc3c(F)ccc4c3CCO4)n3cnnc23)cnn1C [Example 172, 8-(1,5-dimethyl-1H-pyrazol-4-yl)-N-((5-fluoro-2,3-dihydrobenzofuran-4-yl)methyl)-[1,2,4]triazolo[4,3-c]pyrimidin-5-amine]

pIC50 [1]: 8.20
pIC50 [2]: 8.04
SMILES: COc1ncc(-c2cnc(NCc3c(F)ccc4c3CCO4)n3cnnc23)c(C)n1 [Example 175, N-((5-fluoro-2,3-dihydrobenzofuran-4-yl)methyl)-8-(2-methoxy-4-methylpyrimidin-5-yl)-[1,2,4]triazolo[4,3-c]pyrimidin-5-amine]

pIC50 [1]: 8.23
pIC50 [2]: 8.08
SMILES: Cc1ncncc1-c1cnc(NCc2c(F)ccc3c2CCO3)n2cnnc12 [Example 176, N-((5-fluoro-2,3-dihydrobenzofuran-4-yl)methyl)-8-(4-methylpyrimidin-5-yl)-[1,2,4]triazolo[4,3-c]pyrimidin-5-amine]

The remaining lines, values behind:

SMILES: Fc1ccc2c(c1CNc1ncc(-c3ccc(Cl)cc3Cl)c3nncn13)CCO2 [Example 146, 8-(2,4-dichlorophenyl)-N-((5-fluoro-2,3-dihydrobenzofuran-4-yl)methyl)-[1,2,4]triazolo[4,3-c]pyrimidin-5-amine]
pIC50 [1]: 7.64
pIC50 [2]: 7.42

SMILES: Cn1cc(-c2cnc(NCc3c(F)ccc4c3CCO4)n3cnnc23)cn1 [Example 147, N-((5-fluoro-2,3-dihydrobenzofuran-4-yl)methyl)-8-(1-methyl-1H-pyrazol-4-yl)-[1,2,4]triazolo[4,3-c]pyrimidin-5-amine]
pIC50 [1]: 8.44
pIC50 [2]: 7.80

SMILES: CC(C)n1cc(-c2cnc(NCc3c(F)ccc4c3CCO4)n3cnnc23)c(C(F)(F)F)n1 [Example 148, N-((5-fluoro-2,3-dihydrobenzofuran-4-yl)methyl)-8-(1-isopropyl-3-(trifluoromethyl)-1H-pyrazol-4-yl)-[1,2,4]triazolo[4,3-c]pyrimidin-5-amine]
pIC50 [1]: 8.28
pIC50 [2]: 7.74

SMILES: c1cc(CNc2ncc(-c3cnn(C4CC4)c3)c3nncn23)c2c(c1)OCC2 [Example 149, 8-(1-cyclopropyl-1H-pyrazol-4-yl)-N-((2,3-dihydrobenzofuran-4-yl)methyl)-[1,2,4]triazolo[4,3-c]pyrimidin-5-amine]
pIC50 [1]: 7.77
pIC50 [2]: 7.47

SMILES: Fc1ccc2c(c1CNc1ncc(-c3cnn(C4CC4)c3)c3nncn13)CCO2 [Example 150, 8-(1-cyclopropyl-1H-pyrazol-4-yl)-N-((5-fluoro-2,3-dihydrobenzofuran-4-yl)methyl)-[1,2,4]triazolo[4,3-c]pyrimidin-5-amine]
pIC50 [1]: 8.35
pIC50 [2]: 8.15

SMILES: Cc1nn(C(C)C)c(C)c1-c1cnc(NCc2c(F)ccc3c2CCO3)n2cnnc12 [Example 151, N-((5-fluoro-2,3-dihydrobenzofuran-4-yl)methyl)-8-(1-isopropyl-3,5-dimethyl-1H-pyrazol-4-yl)-[1,2,4]triazolo[4,3-c]pyrimidin-5-amine]
pIC50 [1]: 7.88
pIC50 [2]: 7.67

SMILES: Cn1nccc1-c1cnc(NCc2cccc3c2CCO3)n2cnnc12 [Example 152, N-((2,3-dihydrobenzofuran-4-yl)methyl)-8-(1-methyl-1H-pyrazol-5-yl)-[1,2,4]triazolo[4,3-c]pyrimidin-5-amine]
pIC50 [1]: 8.26
pIC50 [2]: 8.16

SMILES: Cc1nn(C(C)C)c(C)c1-c1cnc(NCc2cccc3c2CCO3)n2cnnc12 [Example 153, N-((2,3-dihydrobenzofuran-4-yl)methyl)-8-(1-isopropyl-3,5-dimethyl-1H-pyrazol-4-yl)-[1,2,4]triazolo[4,3-c]pyrimidin-5-amine]
pIC50 [1]: 8.11
pIC50 [2]: 7.83

SMILES: FC(F)c1ccc(-c2cnc(NCc3cccc4c3CCO4)n3cnnc23)cn1 [Example 154, 8-(6-(difluoromethyl)pyridin-3-yl)-N-((2,3-dihydrobenzofuran-4-yl)methyl)-[1,2,4]triazolo[4,3-c]pyrimidin-5-amine]
pIC50 [1]: 7.70
pIC50 [2]: 7.43

SMILES: Fc1ccc(-c2cnc(NCc3c(F)ccc4c3CCO4)n3cnnc23)c(Cl)c1 [Example 157, 8-(2-chloro-4-fluorophenyl)-N-((5-fluoro-2,3-dihydrobenzofuran-4-yl)methyl)-[1,2,4]triazolo[4,3-c]pyrimidin-5-amine]
pIC50 [1]: 7.65
pIC50 [2]: 7.33

SMILES: Cc1nn(CCO)c(C)c1-c1cnc(NCc2c(F)ccc3c2CCO3)n2cnnc12 [Example 158, 2-(4-(5-(((5-fluoro-2,3-dihydrobenzofuran-4-yl)methyl)amino)-[1,2,4]triazolo[4,3-c]pyrimidin-8-yl)-3,5-dimethyl-1H-pyrazol-1-yl)ethanol]
pIC50 [1]: 8.29
pIC50 [2]: 8.02

SMILES: COCCn1nc(C)c(-c2cnc(NCc3c(F)ccc4c3CCO4)n3cnnc23)c1C [Example 159, N-((5-fluoro-2,3-dihydrobenzofuran-4-yl)methyl)-8-(1-(2-methoxyethyl)-3,5-dimethyl-1H-pyrazol-4-yl)-[1,2,4]triazolo[4,3-c]pyrimidin-5-amine]
pIC50 [1]: 8.30
pIC50 [2]: 7.99

SMILES: Fc1ccc2c(c1CNc1ncc(-c3ccc(C(F)(F)F)nc3)c3nncn13)CCO2 [Example 160, N-((5-fluoro-2,3-dihydrobenzofuran-4-yl)methyl)-8-(6-(trifluoromethyl)pyridin-3-yl)-[1,2,4]triazolo[4,3-c]pyrimidin-5-amine]
pIC50 [1]: 8.23
pIC50 [2]: 7.95

SMILES: Fc1ccc2c(c1CNc1ncc(-c3cccnc3C(F)F)c3nncn13)CCO2 [Example 168, 8-(2-(difluoromethyl)pyridin-3-yl)-N-((5-fluoro-2,3-dihydrobenzofuran-4-yl)methyl)-[1,2,4]triazolo[4,3-c]pyrimidin-5-amine]
pIC50 [1]: 8.34
pIC50 [2]: 7.95

SMILES: Cn1nccc1-c1cnc(NCc2c(F)ccc3c2CCO3)n2cnnc12 [Example 169, N-((5-fluoro-2,3-dihydrobenzofuran-4-yl)methyl)-8-(1-methyl-1H-pyrazol-5-yl)-[1,2,4]triazolo[4,3-c]pyrimidin-5-amine]
pIC50 [1]: 8.35
pIC50 [2]: 8.18

SMILES: Cn1cc(-c2cnc(NCc3c(F)ccc4c3CCO4)n3cnnc23)c(C(F)(F)F)n1 [Example 170, N-((5-fluoro-2,3-dihydrobenzofuran-4-yl)methyl)-8-(1-methyl-3-(trifluoromethyl)-1H-pyrazol-4-yl)-[1,2,4]triazolo[4,3-c]pyrimidin-5-amine]
pIC50 [1]: 7.97
pIC50 [2]: 7.92

SMILES: CC(=O)NCc1ccc(-c2cnc(NCc3c(F)ccc4c3CCO4)n3cnnc23)cn1 [Example 171, N-((5-(5-(((5-fluoro-2,3-dihydrobenzofuran-4-yl)methyl)amino)-[1,2,4]triazolo[4,3-c]pyrimidin-8-yl)pyridin-2-yl)methyl)acetamide]
pIC50 [1]: 8.22
pIC50 [2]: 8.14

SMILES: Cc1cc(C2CC2)ncc1-c1cnc(NCc2c(F)ccc3c2CCO3)n2cnnc12 [Example 173, 8-(6-cyclopropyl-4-methylpyridin-3-yl)-N-((5-fluoro-2,3-dihydrobenzofuran-4-yl)methyl)-[1,2,4]triazolo[4,3-c]pyrimidin-5-amine]
pIC50 [1]: 8.12
pIC50 [2]: 8.11

SMILES: COc1ncc(-c2cnc(NCc3c(F)ccc4c3CCO4)n3cnnc23)cn1 [Example 174, N-((5-fluoro-2,3-dihydrobenzofuran-4-yl)methyl)-8-(2-methoxypyrimidin-5-yl)-[1,2,4]triazolo[4,3-c]pyrimidin-5-amine]
pIC50 [1]: 8.33
pIC50 [2]: 8.21
